The record followed here is US4771041A, “Method for combating virus infection” (priority 1976, dated 1988).

A word on the inhibition: it is the change of the read-out against control, counted positive when it falls.

For data set [1], the target named is calf thymus DNA dependent RNA polymerase fraction A (DCA) (Bos taurus, UniProt A6QLS0+E1BIX2). Put plainly: Inhibition of calf thymus DNA dependent RNA polymerase fraction A. In kind it is biochemical. How it is done:
Polymerases, nucleic acid template nucleoside triphosphates, of which guanosine triphosphate is tritium-labelled, salt and buffer are mixed at 0° C. in a total volume of 125 μl (for herpes DNA polymerase, see F. below). The concentrations of the nucleoside triphosphates UTP (uridine triphosphate), CTP (cytidinetriphosphate), GTP (guanosinetriphosphate) and ATP (adenosinetriphosphate) were generall 400, 400, 400, and 2000 μM, respectively. The test compound is also added in various concentrations to the mixture obtained. A standard mixture without test compound is also prepared using the same amounts of the ingredients. The enzyme reaction, i.e. synthesis of nucleic acid, is started by incubating the mixture at 37° C. For influenza RNA polymerases the temperature is 33° C. The reaction is allowed to proceed for 60 minutes in the assay of influenza and Micrococcus polymerases. […] The incorporation of labelled monomer into trichloroacetic acid insoluble nucleic acid product was measured in the following way. […] After drying the discs are measured for radioactivity in a liquid scintillation counter. The difference in radioactivity between samples with and without added compound is used to calculate the inhibition of the polymerase activity. The inhibition is expressed as percentage inhibition using the radioactivity of the standard sample as basis. […]

A further data set relates to influenza virus (WSN). As to the kind of experiment: Influenza virus (WSN) plaque assay on MDCK monolayers. It counts as cell-based, influenza (WSN Wilson Smith Neurotropic type A). The conditions noted are these: unidentified influenza virus, read-out: Inhibition of plaque.
For data set [2], the system named is herpes simplex type 2 patient isolates. Put plainly: Herpes simplex type 2 plaque reduction assay on SIRC monolayers. It counts as cell-based. The conditions noted are these: Human alphaherpesvirus 2. The protocol: The inhibition of influenza virus and herpes virus by phosphonoformic acid has been measured as plaque reaction according to the following procedures.
The plaque reduction assay for herpes simplex type 1 was performed on GMK (Green Monkey Kidney) cells as described by Ejereito et el., J. Gen. Virol. 2 (1968) 357. Monolayers on 5 cm petri dishes were used and after virus adsorption phosphonoformic acid was added in the medium.
I. Inhibition by phosphonoformic acid of herpes simplex type 2 plaque
The plaque reduction assay for herpes simplex type 2 was performed in the same way as in experiment H. The results are shown in Table 9.
Background: Plaques are areas of infected cells; plaque reduction assays count them against a control.

Data set [3] has as its target T1, reverse transcriptase from BLV (Bovine leukemia virus, UniProt P03361).
T1 construct: Reverse transcriptase from various retroviruses have been tested in cell-free assays; made in house
Put plainly: Cell-free reverse transcriptase inhibition, BLV. It counts as biochemical. The conditions noted are these: template/primer (rA)n.(dT)10, read-out: Percent inhibition. How it is done:
Reverse transcriptase from various retroviruses have been tested in cell-free assays for inhibition by phosphonoformic acid and phosphonoacetic acid. The assay conditions have been described by Collaborative Research, Inc, 1365 Main Street, Waltham, Mass., USA "Assay kit for mammalian viral reverse transcriptase". BLV and VV were prepared in this laboratory and all other viruses and viral enzyme were obtained from Dr. K Nilsson, Department of Pathology, University of Uppsala and from Boehringer Mannheim, Germany. Phosphonoformic acid (PFA) and phosphonoacetic acid (PAA) were added at pH 7.2 to the reaction mixtures at the start of the reaction.
Rauscher murine leukemia virus; RMuLV, visna virus; VV, avian myeloblastosis virus; AMV, bovine leukemia virus; BLV, baboon endogenous virus; BaEV, simian sarcoma virus; SSV.

Data set [4] concerns the target HTLV-III reverse transcriptase (Human immunodeficiency virus type 1 group M subtype B, UniProt P03366). Put plainly: HTLV-III reverse transcriptase assay. In kind it is biochemical. How it is done:
The purified enzyme was stored in 50 mM Tris-HCl (pH 7.5), 1 mM dithiothreitol (DTT), 0.01% Triton X-100 and 20% glycerol. Reverse transcriptase assays were carried out in a reaction mixture (50 μl) containing 50 mM Tris-HCl (pH 7.5), 5 mM DTT, 100 mM potassium chloride, 0.01% Triton X-100 or NP40, 10 μg/ml (dT)15.(A)n as template primer and /^3 H/deoxythymidine triphosphate (/^3 H/-dTTP). The reaction mixture was incubated for 1 hour at 37° and the reaction was stopped by the addition of 50 μg of yeast tRNA and 2 ml of 10% solution of trichloroacetic acid (TCA) containing 1 mM sodium pyrophosphate. The samples were filtered on millipore filters (0.45 μm), washed first with 5% TCA solution (5 times) and then with 2 ml of 70% ethanol. The filters were dried under a heat lamp, scintillation fluid was added and the radioactivity counted in a β-scintillation counter.
The effect of foscarnet on purified HTLV-III reverse transcriptase (RT) was assayed as a function of drug concentration.

The conditions of data set [5]: guinea pig, in vivo. How it is done: Phosphonoformic acid and phosphonoacetic acid were used as their trisodium and disodium salts, respectively. The test substances were used in 1% solutions.
Guinea-pigs of the Dunkin-Hartley strain of both sexes and weighing 200-300 g were used. The back of the animal was shaved and depilated with Opilca® on the day before starting the application of the solutions. The back was divided into six squares in the middle of which 30 μl of the test solutions was applied. In a given group of animals the different solutions were applied in a randomized order alternating between sites. However, the same site was used for repeated application of a given solution.
The irritation was scored on scales of 0 to 3, each grade corresponding to the following specific criteria of irritation:
1=slight erythema or edema or no hair growth
2=moderate erythema or edema or skin discoloration
3=marked erythema or edema or necrosis including crust formation.
The scoring was carried out blindly using coded solutions.
The scores of all the applications for a given solution and time were added and the average score was calculated.
The solvent used was a mixture of glycerol 10.0% (w/v), Tween 80 0.1% and aq sterile ad 100. All solutions were adjusted to pH 6.5 with hydrochloric acid or aqueous sodium hydroxide as required. Thirty μl of 1.0% solutions of phosphonoformic acid and phosphonoacetic acid respectively was applied twice daily during three days to each of six guinea pigs.

A further data set deals with cutaneous herpes type 1. The conditions noted are these: trisodium salt in topical preparations according to examples 15, 16 and 17; preliminary experiments.

Molecules are shown by their SMILES.

T1 sequence (P03361 546-1120): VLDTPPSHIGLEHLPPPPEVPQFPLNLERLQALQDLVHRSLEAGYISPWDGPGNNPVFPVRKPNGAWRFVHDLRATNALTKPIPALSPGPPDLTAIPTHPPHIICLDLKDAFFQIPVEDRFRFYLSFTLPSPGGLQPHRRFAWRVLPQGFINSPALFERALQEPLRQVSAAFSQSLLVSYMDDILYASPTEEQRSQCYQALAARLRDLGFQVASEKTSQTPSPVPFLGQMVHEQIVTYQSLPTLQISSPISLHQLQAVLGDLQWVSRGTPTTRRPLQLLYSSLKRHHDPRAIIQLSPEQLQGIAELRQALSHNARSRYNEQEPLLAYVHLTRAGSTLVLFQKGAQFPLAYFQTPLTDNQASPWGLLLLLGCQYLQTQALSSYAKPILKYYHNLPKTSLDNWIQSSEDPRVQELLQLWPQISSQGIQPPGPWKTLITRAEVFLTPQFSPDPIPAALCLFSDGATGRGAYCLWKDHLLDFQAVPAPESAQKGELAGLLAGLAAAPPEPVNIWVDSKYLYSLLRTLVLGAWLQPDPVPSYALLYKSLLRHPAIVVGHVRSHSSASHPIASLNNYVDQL
Chain of calf thymus DNA dependent RNA polymerase fraction A (DCA) (E1BIX2 entry or part of it): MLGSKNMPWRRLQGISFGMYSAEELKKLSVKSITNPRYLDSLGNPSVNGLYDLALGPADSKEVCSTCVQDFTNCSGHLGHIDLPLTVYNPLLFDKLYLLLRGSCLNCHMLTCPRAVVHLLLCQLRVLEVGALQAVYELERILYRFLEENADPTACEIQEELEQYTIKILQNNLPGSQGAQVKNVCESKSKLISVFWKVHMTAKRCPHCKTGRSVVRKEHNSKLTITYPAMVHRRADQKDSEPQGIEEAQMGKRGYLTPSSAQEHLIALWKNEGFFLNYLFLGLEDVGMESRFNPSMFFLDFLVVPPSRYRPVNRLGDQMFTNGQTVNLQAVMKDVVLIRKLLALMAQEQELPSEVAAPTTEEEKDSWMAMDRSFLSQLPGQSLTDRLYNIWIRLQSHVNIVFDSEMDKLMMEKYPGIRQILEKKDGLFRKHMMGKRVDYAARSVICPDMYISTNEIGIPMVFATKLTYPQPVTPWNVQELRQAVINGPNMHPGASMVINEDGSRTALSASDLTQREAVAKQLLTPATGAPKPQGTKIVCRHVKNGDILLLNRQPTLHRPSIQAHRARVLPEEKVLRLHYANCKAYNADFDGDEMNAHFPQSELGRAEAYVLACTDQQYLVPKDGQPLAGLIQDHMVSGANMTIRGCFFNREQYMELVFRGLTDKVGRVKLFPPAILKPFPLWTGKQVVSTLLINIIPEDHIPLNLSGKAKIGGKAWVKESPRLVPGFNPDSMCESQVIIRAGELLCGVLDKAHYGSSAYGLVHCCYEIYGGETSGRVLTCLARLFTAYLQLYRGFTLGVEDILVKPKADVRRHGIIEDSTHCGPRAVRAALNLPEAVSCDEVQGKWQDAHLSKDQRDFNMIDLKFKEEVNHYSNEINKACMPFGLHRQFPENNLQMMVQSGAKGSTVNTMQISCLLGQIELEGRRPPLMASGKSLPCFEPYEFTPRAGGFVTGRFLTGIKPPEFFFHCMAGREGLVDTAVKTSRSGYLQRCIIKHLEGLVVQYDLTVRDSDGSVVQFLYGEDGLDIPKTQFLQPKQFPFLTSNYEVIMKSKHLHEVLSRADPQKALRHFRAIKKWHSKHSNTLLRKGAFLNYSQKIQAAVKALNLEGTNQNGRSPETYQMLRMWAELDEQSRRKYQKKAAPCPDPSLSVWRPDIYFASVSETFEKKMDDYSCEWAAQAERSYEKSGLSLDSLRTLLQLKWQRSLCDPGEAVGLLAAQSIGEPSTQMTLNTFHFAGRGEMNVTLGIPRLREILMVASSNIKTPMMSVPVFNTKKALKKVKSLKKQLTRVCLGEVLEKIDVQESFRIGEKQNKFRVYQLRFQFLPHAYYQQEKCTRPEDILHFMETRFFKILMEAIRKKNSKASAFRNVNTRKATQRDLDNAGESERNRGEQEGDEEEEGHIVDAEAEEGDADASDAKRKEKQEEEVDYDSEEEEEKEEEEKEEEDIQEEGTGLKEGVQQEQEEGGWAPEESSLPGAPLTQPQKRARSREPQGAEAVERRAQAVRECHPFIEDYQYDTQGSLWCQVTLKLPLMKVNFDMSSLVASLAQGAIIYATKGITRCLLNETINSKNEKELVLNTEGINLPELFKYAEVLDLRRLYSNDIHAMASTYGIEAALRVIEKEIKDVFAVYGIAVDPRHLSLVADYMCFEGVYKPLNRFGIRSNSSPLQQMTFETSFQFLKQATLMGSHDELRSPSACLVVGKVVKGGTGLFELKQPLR
Chain of calf thymus DNA dependent RNA polymerase fraction A (DCA) (O15160 whole entry, further chain): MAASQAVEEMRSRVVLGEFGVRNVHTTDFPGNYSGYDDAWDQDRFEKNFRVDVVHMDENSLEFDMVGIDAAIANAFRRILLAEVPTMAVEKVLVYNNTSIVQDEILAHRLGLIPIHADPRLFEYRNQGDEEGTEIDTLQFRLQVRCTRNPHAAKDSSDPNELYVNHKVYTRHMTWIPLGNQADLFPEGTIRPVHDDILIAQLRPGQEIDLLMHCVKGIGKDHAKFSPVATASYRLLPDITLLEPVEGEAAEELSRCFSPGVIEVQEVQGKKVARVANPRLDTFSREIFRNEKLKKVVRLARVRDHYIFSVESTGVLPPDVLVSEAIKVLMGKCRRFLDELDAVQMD
Chain of calf thymus DNA dependent RNA polymerase fraction A (DCA) (Q9P1U0 whole entry, further chain): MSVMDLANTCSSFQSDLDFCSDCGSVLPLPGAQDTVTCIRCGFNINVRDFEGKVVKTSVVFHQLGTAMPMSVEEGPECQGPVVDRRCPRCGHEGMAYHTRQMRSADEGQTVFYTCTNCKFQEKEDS
Chain of calf thymus DNA dependent RNA polymerase fraction A (DCA) (A6QLS0 entry or part of it): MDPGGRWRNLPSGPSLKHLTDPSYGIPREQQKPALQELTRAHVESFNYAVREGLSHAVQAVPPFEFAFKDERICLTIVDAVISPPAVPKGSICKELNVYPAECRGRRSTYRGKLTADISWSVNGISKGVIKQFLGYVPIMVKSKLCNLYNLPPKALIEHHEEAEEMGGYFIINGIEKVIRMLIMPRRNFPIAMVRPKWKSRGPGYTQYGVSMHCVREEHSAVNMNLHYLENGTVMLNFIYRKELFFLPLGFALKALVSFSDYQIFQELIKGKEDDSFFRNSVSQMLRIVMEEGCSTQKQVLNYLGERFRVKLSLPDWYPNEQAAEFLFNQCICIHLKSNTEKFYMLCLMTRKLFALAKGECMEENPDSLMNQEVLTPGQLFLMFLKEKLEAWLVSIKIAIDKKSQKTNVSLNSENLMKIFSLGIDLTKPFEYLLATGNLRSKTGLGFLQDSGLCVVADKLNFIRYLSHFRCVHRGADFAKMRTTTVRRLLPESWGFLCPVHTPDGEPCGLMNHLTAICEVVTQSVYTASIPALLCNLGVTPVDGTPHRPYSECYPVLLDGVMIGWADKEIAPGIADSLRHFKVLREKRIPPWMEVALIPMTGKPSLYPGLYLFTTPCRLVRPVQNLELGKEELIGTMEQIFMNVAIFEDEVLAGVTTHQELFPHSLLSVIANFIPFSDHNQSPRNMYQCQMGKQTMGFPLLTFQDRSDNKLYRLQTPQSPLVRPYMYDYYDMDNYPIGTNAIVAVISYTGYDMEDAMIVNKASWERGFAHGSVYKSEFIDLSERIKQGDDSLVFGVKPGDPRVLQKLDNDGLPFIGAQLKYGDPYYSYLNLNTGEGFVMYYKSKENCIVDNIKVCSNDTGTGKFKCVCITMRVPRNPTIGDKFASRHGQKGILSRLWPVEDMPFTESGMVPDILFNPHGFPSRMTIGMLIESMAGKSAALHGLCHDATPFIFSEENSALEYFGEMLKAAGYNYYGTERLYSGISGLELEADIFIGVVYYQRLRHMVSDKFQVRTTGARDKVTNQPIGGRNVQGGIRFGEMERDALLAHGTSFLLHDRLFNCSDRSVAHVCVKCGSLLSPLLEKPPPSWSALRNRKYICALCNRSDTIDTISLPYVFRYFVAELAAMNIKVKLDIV
Chain of calf thymus DNA dependent RNA polymerase fraction A (DCA) (Q3B726 whole entry, further chain): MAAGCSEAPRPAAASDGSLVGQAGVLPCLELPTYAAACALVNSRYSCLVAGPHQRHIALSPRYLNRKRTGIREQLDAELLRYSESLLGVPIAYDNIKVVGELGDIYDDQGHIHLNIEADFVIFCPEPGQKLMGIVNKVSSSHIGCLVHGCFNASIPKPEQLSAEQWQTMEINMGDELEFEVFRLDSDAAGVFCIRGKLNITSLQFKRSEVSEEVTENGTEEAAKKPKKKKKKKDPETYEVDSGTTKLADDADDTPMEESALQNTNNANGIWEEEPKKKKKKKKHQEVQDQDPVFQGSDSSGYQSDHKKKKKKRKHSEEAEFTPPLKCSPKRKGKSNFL
Chain of calf thymus DNA dependent RNA polymerase fraction A (DCA) (P0DPB6 whole entry, further chain): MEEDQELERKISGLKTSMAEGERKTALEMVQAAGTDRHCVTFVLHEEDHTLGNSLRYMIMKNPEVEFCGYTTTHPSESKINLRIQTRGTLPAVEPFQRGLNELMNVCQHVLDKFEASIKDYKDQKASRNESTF

As to `O=C(O)P(=O)(O)O` [phosphonoformic acid], the inhibition at 500 µM is -3% in data set [1], 95% with influenza virus (WSN), 99.9% in data set [2] and 93% in data set [3] (500 μM). Also, the inhibition at 100 µM in the data set with influenza virus (WSN) is 10%; in data set [3] (100 μM), 88%. The inhibition at 250 µM in the data set with influenza virus (WSN) worked out at 50%. For the same compound, the IC50 in data set [4] (purified enzyme from different virus isolates, (dT)15.(A)n template primer, read-out: concentration causing 50% inhibition of HTLV-III reverse transcriptase activity) is 0.1 to 2 µM. In addition, the “type of inhibition of reverse transcriptase” value in data set [4] (with respect to substrate and template) was “noncompetitive with respect to substrate and uncompetitive with respect to template”. Also, in data set [5], the “skin condition after two weeks” value is reported as “the skin is normal with hair after two weeks”. The therapeutic effect entry with cutaneous herpes type 1 is “has a therapeutic effect”.
